Assay results published in patent publication US9073858B2, “Methods of targeted drug development” (priority 2010, dated 2015).
Like-named read-outs stand apart in the source and are kept apart here.

Assays:
EGFR = molecular target: T1, EGFR (Homo sapiens, UniProt P00533); test: EGFR in-cell Western (ICW) screening protocol; assay type: cell-based; parameters: unit not given here; conditions: for ICW Screen: initial screen
T1 construct: endogenous in cells; host or cells: A431 cells (ATCC CRL-1555)
Protocol: The following example describes general EGFR in-cell Western (ICW) screening protocol.
Two cell plates were prepared for each compound plate.
Serum Starvation: The cells were serum starved prior to compound addition. […] The cell plates were incubated at 37° C./5% CO2 for 2 hours.
Prepared compound plates were stored at RT prior to use and at 4° C. long term.
Compound Dilution Plate Preparation: 250 μl of DMEM supplemented with 1 mg/ml BSA (Sigma A3059-10G) was added to the appropriate wells of a 96 well plate to prepare the compound dilution plates. Using a multichannel pipettor, 1.25 μl of compound from the compound plate was transferred into the compound dilution plate.
Compound Addition: The starve media was removed from the cell plates by aspiration. Using a multichannel pipettor, the compound dilution plates were mixed by pipetting up and down three times. 50 μl of mixed, diluted compound was added to each of two rows/columns on each of two cell plates. The cell plates with compound were incubated at 37° C./5% CO2 for 4 hours.
50 μl of 20 or 0 ng/ml EGF was added to the appropriate wells without the removal of compound. The compound and EGF were mixed by pipetting up and down three times.
The plates were incubated at RT for 20 min without shaking. The Fixation Solution was removed by aspiration and the plates washed four times with 200 μl each of Triton Wash Solution (1×PBS, Sigma P3813-10PK, and 0.1% Triton X-100, T8787-50ML) for 5 min with gentle shaking.
The block was removed by aspiration and 50 μl of diluted primary Ab mix was added. The plates were incubated at 4° C. overnight with gentle shaking. The plates were washed five times with 200 μl of PBST (1×PBS, Sigma P3813-10PK, and 0.1% Tween-20, Sigma P9416-50ML) for 5 min each with shaking. 50 μl of diluted secondary Ab mix was added and the plates incubated at RT for 1 h with shaking. The plates were washed 5× with 200 μl of PBST for 5 min each with shaking. One final wash with 200 μl of PBS (Sigma P3813-10PK) for 5 min with shaking was performed prior to scanning.
In some screening assays, the dilution of the secondary Ab conjugates was 1/800 rather than 1/1200.
Plate Scanning: The plates were scanned on an Odyssey Infrared Imaging System from LI-COR Biosciences. The focus offset was set at 3.5 mm and the scanning intensity set at 3 for the 700 channel and 7 for the 800 channel.
Data Analysis: The % of Maximum and % Inhibition values were calculated as follows. 700 Channel=signal for total EGFR (used to control for variation in cell number). 800 Channel=signal for phosphorylated EGFR. 800−EGF=basal level EGFR phosporylation+non-specific signal (no compound). 800+EGF=800−EGF+EGF dependent EGFR receptor phosphorylation (no compound). 700/800com=700 or 800 channel signals with compound. % Maximum={[(800com/700com)−(800−EGF/700−EGF)]/[(800+EGF/700+EGF)−(800−EGF/700−EGF)]}×100%. % Inhibition=100%−(% Maximum).

[1] = tested on: epithelial carcinoma A431 cell line; test: MTT Cell Proliferation Assay, A431 cell line; assay type: cell-based; conditions: for MTT (10 Point follow-up) ratio / MTT-72 h A431/MDBK (ratio): value in brackets; for MTT (10 Point follow-up) ratio: numerically MDBK over A431; for MTT-72 h A431/MDBK (ratio): numerically MDBK value over A431 value
Description: (§1) The following example describes the MTT Cell Proliferation Assay.
(§2) The MTT Cell Proliferation Assay is a colorimetric assay system that measures the reduction of the tetrazolium salt MTT (3-(4,5-dimethylthiazol-2-yl)-2,5-diphenyltetrazolium bromide) into insoluble formazan crystals, produced by the mitochondria of viable cells. […] The color can then be quantified by spectrophotometric means. Among the applications for the method are drug sensitivity, cytotoxicity, response to growth factors, and cell activation. The reduction of tetrazolium salts is now recognized as a safe, accurate alternative to radiometric testing.
(§3) Two replicates on each cell plate and 2 duplicate plates gave 4 individual replicates of each concentration, in each cell line. Concentrations were diluted in 100% DMSO from 25 mM stocks.
(§4) Twelve 96 well plates of each cell line were plated. Plating was done by dislodging cells as in passage protocol, counting on a hemocytometer, re-suspending in standard growth media, and plating using a multichannel pippetor.
(§5) 16 μl of 25 mM stock+34 μl DMSO=8 mM starting concentrations, and serial diluted as with test compounds in same plate. […] Two replicates of each concentrations was run on each cell plate. All compound addition and cell treatments were done using aseptic technique under a laminar flow aseptic hood.
(§6) Control: 0.5% DMSO in treatment media was used as the control.
(§7) MTT dye (Thiazolyl Blue Tetrazolium Bromide, Sigma cat # M5655) stock was prepared in bulk and stored at 4° C. for use: 5 mgs/ml sterile PDS, shielded from light. 4 ul of this stock per 100 uls treatment media per well was used.
(§8) Plates were incubated overnight prior to treatment, with treatment day=Day 0. Compound treatments were prepared prior to washing cells to minimize time cells were dry at room temperature after final aspiration. Compounds were diluted in 100% DMSO in 96 well polypropylene plates:40 μl 25 mM stock+10 μl DMSO=20 mM; 20 μl of 20 mM+30 μl DMSO=8 mM; 20 μl of 8 mM+30 μl DMSO=3.2 mM; 20 μl of 3.2 mM+30 μl DMSO=1.3 mM; 20 μl of 1.3 mM+30 μl DMSO=0.51 mM.
(§9) 5.0 μl/ml were added to treatment media, in sterile, 2.2 ml deep well plates=0.5% dmso final. Ten μl of each dmso concentration was added to 2.0 ml of treatment media and then mixed using a 1200 μl multichannel pipettor. Cell plates were treated from the deep well plates. Treatment media was standard growth media containing 0.5% FBS and standard additions. This reduced FBS concentration allowed for a slower growth rate in cells.
(§10) Media was aspirated from cell plates, and washed with 200 μl/well sterile PBS. Aspirated PBS wash, and cell plates were treated with 200 μl of compound/treatment media per well, and incubated at 37° C., 5% CO2 for 3 days.
(§11) Prior to harvesting, visual observations were made under an inverted microscope. Plates were harvested by: aspirating the growth media; adding back MTT dye/100 μl treatment media; and incubating plates at 37° C. for 1 hour. MTT dye was aspirated. 100 μl/well dmso was added, and then shaken on a Bellco plate shaker for 5 minutes, at 4.5 setting.
(§12) Plates were read in a Tecan Sunrize UV plate reader, at 560 nm. Settings: Read mode, Outside Normal 2 sec; Shake settle time 3 sec. Data is reported as % inhibition, calculated for individual plates using control values from that plate.

MDBK line = test: MTT Cell Proliferation Assay, MDBK line; assay type: cell-based, bovine
Description: as §1, §2, §3, §4, §5, §6, §7, §8, §9, §10, §11, §12

[2] = Homo sapiens, A-431, 10 point follow-up, first value of pair, read-out: MTT (10 Point follow-up) A431
[3] = Homo sapiens, A-431, 72 h, 72 h, first value of A431/MDBK pair, read-out: MTT-72 h A431
[4] = Bos taurus, MDBK, 10 point follow-up, second value of pair, read-out: MTT (10 Point follow-up) MDBK
[5] = Bos taurus, MDBK, 72 h, second value of A431/MDBK pair, read-out: MTT-72 h MDBK

T1 sequence (P00533 25-1210): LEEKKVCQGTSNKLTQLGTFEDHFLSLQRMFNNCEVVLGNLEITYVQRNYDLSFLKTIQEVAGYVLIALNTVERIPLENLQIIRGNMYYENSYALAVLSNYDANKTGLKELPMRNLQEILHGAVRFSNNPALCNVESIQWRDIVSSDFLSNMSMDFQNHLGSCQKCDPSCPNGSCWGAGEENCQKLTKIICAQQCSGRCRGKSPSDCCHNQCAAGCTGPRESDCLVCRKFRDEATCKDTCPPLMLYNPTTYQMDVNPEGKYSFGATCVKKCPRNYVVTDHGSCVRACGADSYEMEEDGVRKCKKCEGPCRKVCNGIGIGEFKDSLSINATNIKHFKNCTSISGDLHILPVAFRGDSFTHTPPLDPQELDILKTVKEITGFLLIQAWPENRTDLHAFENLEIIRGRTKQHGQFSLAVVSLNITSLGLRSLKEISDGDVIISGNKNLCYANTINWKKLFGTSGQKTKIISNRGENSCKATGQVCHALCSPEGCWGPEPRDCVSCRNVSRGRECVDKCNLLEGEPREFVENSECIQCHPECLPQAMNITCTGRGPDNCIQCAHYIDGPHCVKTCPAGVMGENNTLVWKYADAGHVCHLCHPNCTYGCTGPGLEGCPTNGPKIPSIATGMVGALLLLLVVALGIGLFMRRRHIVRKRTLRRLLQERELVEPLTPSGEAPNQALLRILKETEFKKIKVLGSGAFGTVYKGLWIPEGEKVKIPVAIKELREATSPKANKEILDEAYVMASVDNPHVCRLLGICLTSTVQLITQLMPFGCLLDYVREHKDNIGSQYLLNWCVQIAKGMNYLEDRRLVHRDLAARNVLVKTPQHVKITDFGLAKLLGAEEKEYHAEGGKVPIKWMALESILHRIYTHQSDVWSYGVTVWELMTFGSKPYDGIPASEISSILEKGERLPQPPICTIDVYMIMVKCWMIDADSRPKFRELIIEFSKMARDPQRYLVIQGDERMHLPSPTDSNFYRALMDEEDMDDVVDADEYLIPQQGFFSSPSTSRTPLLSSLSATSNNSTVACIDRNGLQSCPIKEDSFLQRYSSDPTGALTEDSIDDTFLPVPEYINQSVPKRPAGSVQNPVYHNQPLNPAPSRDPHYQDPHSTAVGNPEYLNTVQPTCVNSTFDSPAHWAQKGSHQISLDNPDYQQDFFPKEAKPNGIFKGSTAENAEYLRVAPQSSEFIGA

| Compound | ICW Screen (EGFR) | MTT (10 Point follow-up) ratio ([1]; 10 point follow-up) | MTT-72 h A431/MDBK (ratio) ([1]; 72 h) | IC50 [1, 2] | IC50 [1, 3] | IC50 (MDBK line; [4]) | IC50 (MDBK line; [5]) | ICW Re-Test (EGFR) | IC50 ([1]; 72 h, first value of A431/MDBK pair, read-out: MTT-72 h A431) | IC50 (MDBK line; 72 h, second value of A431/MDBK pair, read-out: MTT-72 h MDBK) | MTT (10 Point follow-up) % Max ([1]; 10 point follow-up, maximal effect) |
| --- | --- | --- | --- | --- | --- | --- | --- | --- | --- | --- | --- |
| Cc1ccnc(NC(c2ccc3cccnc3c2O)c2c(O)cccc2Cl)c1 (stereo not drawn) [compound 10067] | 12.5 | 2.14 | 1.60 | 1.38 µM | 2.15 µM | 2.95 µM | 3.45 µM |  |  |  |  |
| CC(C)Oc1ccc(C(Nc2ccccn2)c2ccc3cccnc3c2O)cc1 (stereo not drawn) [compound 10068] | 29.92 |  | 0.91 |  | 5.72 µM |  | 5.19 µM |  |  |  |  |
| CCOc1cc(C(Nc2cc(C)ccn2)c2ccc3ccc(C)nc3c2O)ccc1O (stereo not drawn) [compound 10071] | 40.85 |  | 1.37 |  | 7.89 µM |  | 10.8 µM | 43.19 |  |  |  |
| Oc1c(C(Nc2ccccn2)c2ccccc2Br)cc(Cl)c2cccnc12 (stereo not drawn) [compound 10074] | 6.951 | 1.16 |  | 1.38 µM |  | 1.6 µM |  |  |  |  |  |
| COc1cc(C(Nc2ccccn2)c2cc(Cl)c3cccnc3c2O)cc(I)c1O (stereo not drawn) [compound 10086] | 53.89 |  | 0.77 |  | 5.96 µM |  | 4.61 µM | 25.94 |  |  |  |
| COc1cc(C(Nc2ccccn2)c2cc(Cl)c3cccnc3c2O)cc(Br)c1O (stereo not drawn) [compound 10087] | 62.13 | 1.18 | 1.11 | 4.7 µM | 5.23 µM | 5.55 µM | 5.79 µM | 41.13 |  |  |  |
| Oc1c(C(Nc2ccccn2)c2cccc(F)c2)cc(Cl)c2cccnc12 (stereo not drawn) [compound 10090] | 21.53 | 1.48 | 1.06 | 1.76 µM | 5.28 µM | 2.6 µM | 5.62 µM |  |  |  |  |
| O=C(O)c1ccc(C(Nc2ccccn2)c2cc(Cl)c3cccnc3c2O)cc1 (stereo not drawn) [compound 10093] | 25.13 |  | 0.68 |  | 31.4 µM |  | 21.5 µM |  |  |  |  |
| Oc1c(C(Nc2ccccn2)c2cccc(Cl)c2)cc(Cl)c2cccnc12 (stereo not drawn) [compound 10097] | 28.02 | 1.66 | 0.98 | 1.25 µM | 6.23 µM | 2.07 µM | 6.09 µM |  |  |  |  |
| Oc1c(C(Nc2ccccn2)c2cccc(Br)c2)cc(Cl)c2cccnc12 (stereo not drawn) [compound 10100] | 18.12 | 1.62 |  | 1.06 µM |  | 1.72 µM |  |  |  |  |  |
| CCOc1ccc(C(Nc2ccccn2)c2cc(Cl)c3cccnc3c2O)cc1 (stereo not drawn) [compound 10101] | 44.01 | 0.90 | 1.66 | 2.88 µM |  | 2.59 µM |  | 7.53 | 5.77 µM | 9.52 µM |  |
| Oc1c(C(Nc2ccccn2)c2c(F)cccc2Cl)cc(Cl)c2cccnc12 (stereo not drawn) [compound 10105] | 3.88 | 1.40 | 1.12 | 0.605 µM | 1.29 µM | 0.85 µM | 1.45 µM |  |  |  | 77% |
| COc1ccc(Br)cc1C(Nc1ccccn1)c1cc(Cl)c2cccnc2c1O (stereo not drawn) [compound 10108] | 15.91 | 1.53 |  | 1.13 µM |  | 1.73 µM |  |  |  |  |  |
| Oc1c(C(Nc2ccccn2)c2ccc(Cl)c(Cl)c2)ccc2cccnc12 (stereo not drawn) [compound 10109] | 12.75 | 2.58 |  | 0.534 µM |  | 1.38 µM |  |  |  |  |  |
| CCOc1ccc(C(Nc2cc(C)ccn2)c2ccc3cccnc3c2O)cc1OCC (stereo not drawn) [compound 10143] | 45.61 |  | 0.92 |  | 4.74 µM |  | 4.33 µM | 27.18 |  |  |  |
| C=CCOc1cccc(C(Nc2cc(C)ccn2)c2ccc3cccnc3c2O)c1 (stereo not drawn) [compound 10144] | 39.73 |  | 0.93 |  | 5.67 µM |  | 5.29 µM | 21.02 |  |  |  |
| Oc1c(C(Nc2cccnc2)c2cccs2)ccc2cccnc12 (stereo not drawn) [compound 10315] | 80.77 | 1.12 | 1.26 | 0.697 µM | 4.52 µM | 0.783 µM | 5.69 µM | 92.46 |  |  |  |
| Oc1ccccc1C(Nc1ccccn1)c1ccc2cccnc2c1O (stereo not drawn) [compound 10427] | 43.39 |  | 0.87 |  | 5.56 µM |  | 4.82 µM | 43.82 |  |  |  |
| Cc1ccc(NC(c2ccccc2O)c2ccc3cccnc3c2O)nc1 (stereo not drawn) [compound 10430] | 43.81 |  | 0.86 |  | 6.47 µM |  | 5.58 µM | 48.57 |  |  |  |
| Oc1c(C(Nc2ccccn2)c2ccc(OC(F)F)cc2)ccc2cccnc12 (stereo not drawn) [compound 10466] | 17.15 | 1.08 | 1.31 | 0.717 µM | 0.73 µM | 0.775 µM | 0.95 µM |  |  |  |  |
